Assay results: BindingDB's records for doi:10.1021/jm025502x (2002)

Experiments:
[1] = In vitro inhibitory concentration against Methionyl-tRNA synthetase in a pyrophosphate exchange assay
[2] = target: Methionyl-tRNA synthetase (Staphylococcus aureus); assay: In vitro inhibitory concentration against Staphylococcus aureus Methionyl-tRNA synthetase

Row | IC50 [1] [nM] | IC50 [2] [nM] | Compound
1 | 1 |  | Oc1cc(NCCCNC2CCNc3c(Br)cc(Br)cc32)nc2ccccc12 (stereo not drawn) [2-[3-(6,8-Dibromo-1,2,3,4-tetrahydro-quinolin-4-ylamino)-propylamino]-1H-quinolin-4-one]
2 | 500 |  | Oc1cc(NCCCNCc2ccc(Cl)c(Cl)c2)nc2ccccc12 [2-[3-(3,4-Dichloro-benzylamino)-propylamino]-1H-quinolin-4-one]
3 |  | 12 | CCc1cc(I)c2c(c1)C(NCCCNc1cc(O)c3ccccc3n1)CCN2 (stereo not drawn) [2-[3-(6-Ethyl-8-iodo-1,2,3,4-tetrahydro-quinolin-4-ylamino)-propylamino]-1H-quinolin-4-one]
